Results taken from patent US20230287003A1, “BCL6 INHIBITORS” (Cancer Research Technology Limited, priority 2018, published 2023).

Assays:
[1] = molecular target: BCL6-NCOR2(SMRT) corepressor protein-protein interaction (Homo sapiens (Human), UniProt P41182); assay: NanoBRET cell assay; type: cell-based; settings: for IC50: read-out: NanoBRET cell avg pIC50 (converted)
Source text: At 20 hr post-transfection, cells were collected, washed with PBS, and exchanged into media containing phenol red-free OptiMEM+4% FBS (Life Technology).

[2] = molecular target: human BCL6 BTB domain (Trx-6×His-BCL6) / BCOR-AF633 peptide (Homo sapiens (Human), UniProt P41182); assay: HTRF assay; type: binding; settings: 1 nM Trx-6×His-BCL6, 300 nM BCOR-AF633 peptide, 2 hours incubation; for IC50: HTRF avg pIC50 (1 nM)
Procedure: The % inhibition at each concentration was calculated by normalising FRET ratio to the appropriate high (DMSO with all reagents) and low (DMSO without BCL6) controls.

| Molecule | IC50 [1] | HTRF avg pIC50 (1 nM) [2] | NanoBRET cell avg pIC50 ([1]; HEK293T cells co-transfected with BCL6-nanoLuc and NCOR2-HaloTag, 6 hr incubation) | IC50 [2] |
| --- | --- | --- | --- | --- |
| C[C@H]1CCOc2c(c3cc(Nc4cc(C(=O)N5CCC5)nc(Cl)c4C#N)ccc3n(C)c2=O)N1 [Example 3a, (S)-6-(azetidine-1-carbonyl)-2-chloro-4-((2,7-dimethyl-6-oxo-1,2,3,4,6,7-hexahydro-[1,4]oxazepino[2,3-c]quinolin-10-yl)amino)nicotinonitrile] | 4790 nM | 6.88 | – | – |
| (R)-10-((5-chloro-2-((3S,5R)-3-hydroxy-5- methylpiperidin-1-yl)pyrimidin-4-yl)amino)-2-cyclopropyl-7- methyl-1,2,3,4-tetrahydro-[1,4]oxazepino[2,3-c]quinolin-6(7H)-one or (R)-10-((5-chloro-2-((3R,5S)-3-hydroxy-5-methylpiperidin-1- yl)pyrimidin-4-yl)amino)-2-cyclopropyl-7-methyl-1,2,3,4-tetrahydro- [1,4]oxazepino[2,3-c]quinolin-6(7H)-one: formic acid (1:1) [Example 12d] | – | 7.74 | 7.06 | – |
| Cn1c(=O)c2c(c3cc(Nc4nc(N5C6CCC5COC6)ncc4Cl)ccc31)N[C@@H](C1CC1)CCO2 [Example 5l, (R)-10-((2-(3-oxa-8-azabicyclo[3.2.1]octan-8-yl)-5-chloropyrimidin-4-yl)amino)-2-cyclopropyl-7-methyl-1,2,3,4-tetrahydro-[1,4]oxazepino[2,3-c]quinolin-6(7H)-one] | 120 nM | 7.49 | – | – |
| CN(C)C(=O)C1CCN(c2ncc(Cl)c(Nc3ccc4c(c3)c3c(c(=O)n4C)C(=O)OC[C@H](C4CC4)N3)n2)CC1 [Example 8m, (S)-1-(5-chloro-4-((2-cyclopropyl-7-methyl-5,6-dioxo-1,2,3,5,6,7-hexahydro-[1,4]oxazepino[6,5-c]quinolin-10-yl)amino)pyrimidin-2-yl)-N,N-dimethylpiperidine-4-carboxamide] | 31600 nM | 6.28 | – | – |
| Cn1c(=O)c2c(c3cc(Nc4nc(N5C6COCC5CC(O)C6)ncc4Cl)cnc31)N[C@@H](C1CC1)CCO2 (stereo partly drawn) [Example 11b, (R)-10-((5-chloro-2-((1R,5S,7S)-7-hydroxy-3-oxa-9-azabicyclo[3.3.1]nonan-9-yl)pyrimidin-4-yl)amino)-2-cyclopropyl-7-methyl-1,2,3,4-tetrahydro-[1,4]oxazepino[2,3-c][1,8]naphthyridin-6(7H)-one] | 32.4 nM | 8.16 | – | – |
| Cn1c(=O)c2c(c3cc(Nc4ccnc(Cl)c4C#N)ccc31)N[C@@H](C1CC1)CCS2(=O)=O [Example 1u, (R)-2-chloro-4-((2-cyclopropyl-7-methyl-5,5-dioxido-6-oxo-1,2,3,4,6,7-hexahydro-[1,4]thiazepino[2,3-c]quinolin-10-yl)amino)nicotinonitrile] | 3090 nM | 8.15 | – | – |
| COCC1(C)CCOc2c(c3cc(Nc4ccnc(Cl)c4C#N)ccc3n(C)c2=O)N1 (stereo not drawn) [Example 1g, 2-chloro-4-((2-(methoxymethyl)-2,7-dimethyl-6-oxo-1,2,3,4,6,7-hexahydro-[1,4]oxazepino[2,3-c]quinolin-10-yl)amino)nicotinonitrile] | 2510 nM | 6.30 | – | – |
| CC1Nc2c(c(=O)n(C)c3ccc(Nc4nc(N5C[C@H](C)C[C@H](C)C5)ncc4Cl)cc23)C(=O)OC1C (mixture of isomers) [Example 8p, rac-(2S,3R)-10-((5-chloro-2-((3S,5R)-3,5-dimethylpiperidin-1-yl)pyrimidin-4-yl)amino)-2,3,7-trimethyl-2,3-dihydro-[1,4]oxazepino[6,5-c]quinoline-5,6(1H,7H)-dione or rac-(2S,3S)-10-((5-chloro-2-((3S,5R)-3,5-dimethylpiperidin-1-yl)pyrimidin-4-yl)amino)-2,3,7-trimethyl-2,3-dihydro-[1,4]oxazepino[6,5-c]quinoline-5,6(1H,7H)-dione] | 25700 nM | – | – | 275 nM |
| Cn1c(=O)c2c(c3cc(Nc4cc(C(=O)N5CC(C(F)(F)F)C5)nc(Cl)c4C#N)ccc31)N[C@@H](C1CC1)CCO2 [Example 3b, (R)-2-chloro-4-((2-cyclopropyl-7-methyl-6-oxo-1,2,3,4,6,7-hexahydro-[1,4]oxazepino[2,3-c]quinolin-10-yl)amino)-6-(3-(trifluoromethyl)azetidine-1-carbonyl)nicotinonitrile] | 646 nM | 7.32 | – | – |
| C[C@@H]1CN(c2nc(Cl)c(Cl)c(Nc3ccc4c(c3)c3c(c(=O)n4C)OCC[C@H](C4CC4)N3)n2)C[C@H](C)O1 [Example 1r, (R)-2-cyclopropyl-10-((5,6-dichloro-2-((2S,6R)-2,6-dimethylmorpholino)pyrimidin-4-yl)amino)-7-methyl-1,2,3,4-tetrahydro-[1,4]oxazepino[2,3-c]quinolin-6(7H)-one] | 1020 nM | 6.51 | – | – |
| O=c1c2c(c3cc(Nc4nc(N5C6CCC5COC6)ncc4Cl)ccc3n1CC1CC(F)(F)C1)N[C@@H](C1CC1)CCO2 [Example 5q, (R)-10-((2-(3-oxa-8-azabicyclo[3.2.1]octan-8-yl)-5-chloropyrimidin-4-yl)amino)-2-cyclopropyl-7-((3,3-difluorocyclobutyl)methyl)-1,2,3,4-tetrahydro-[1,4]oxazepino[2,3-c]quinolin-6(7H)-one] | 97.7 nM | 7.63 | – | – |
| Cn1c(=O)c2c(c3cc(Nc4ccnc(Cl)c4C#N)ccc31)N[C@@H](C1CC1)COC2 [Example 9b, (S)-2-chloro-4-((2-cyclopropyl-7-methyl-6-oxo-1,2,3,5,6,7-hexahydro-[1,4]oxazepino[6,5-c]quinolin-10-yl)amino)nicotinonitrile] | 2000 nM | 6.57 | – | – |
| Cn1c(=O)c2c(c3cc(Nc4nc(N5C6CCC5CS(=O)(=O)C6)ncc4Cl)ccc31)N[C@@H](C1CC1)C(F)(F)CO2 [Example 12w, (S)-10-((5-chloro-2-(3,3-dioxido-3-thia-8-azabicyclo[3.2.1]octan-8-yl)pyrimidin-4-yl)amino)-2-cyclopropyl-3,3-difluoro-7-methyl-1,2,3,4-tetrahydro-[1,4]oxazepino[2,3-c]quinolin-6(7H)-one] | 11 nM | 8.73 | – | – |
| C[C@H]1CCOc2c(c3cc(Nc4nc(N5CCC(C(=O)N(C)C)CC5)ncc4Cl)ccc3n(C)c2=O)N1 [Example 5d, (S)-1-(5-chloro-4-((2,7-dimethyl-6-oxo-1,2,3,4,6,7-hexahydro-[1,4]oxazepino[2,3-c]quinolin-10-yl)amino)pyrimidin-2-yl)-N,N-dimethylpiperidine-4-carboxamide] | 1410 nM | 6.83 | – | – |
| Cn1c(=O)c2c(c3cc(Nc4nc(N5C6CCC5CC(O)C6)ncc4Cl)ccc31)N[C@@H](C1CC1)CCO2 (stereo partly drawn) [Example 12f, (R)-10-((5-chloro-2-((1R,3R,5S)-3-hydroxy-8-azabicyclo[3.2.1]octan-8-yl)pyrimidin-4-yl)amino)-2-cyclopropyl-7-methyl-1,2,3,4-tetrahydro-[1,4]oxazepino[2,3-c]quinolin-6(7H)-one] | 295 nM | 7.96 | – | – |
| (S)-10-((5-chloro-2-((S)-4,4-difluoro-3- (hydroxymethyl)piperidin-1-yl)pyrimidin-4-yl)amino)-2-cyclopropyl- 3,3-difluoro-7-methyl-1,2,3,4-tetrahydro-[1,4]oxazepino[2,3-c]quinolin- 6(7H)-one or (S)-10-((5-chloro-2-((R)-4,4-difluoro-3- (hydroxymethyl)piperidin-1-yl)pyrimidin-4-yl)amino)-2-cyclopropyl- 3,3-difluoro-7-methyl-1,2,3,4-tetrahydro-[1,4]oxazepino[2,3-c]quinolin- 6(7H)-one [Example 12q] | – | 8.65 | – | – |
| Cn1c(=O)c2c(c3cc(Nc4cc(C(=O)O)nc(Cl)c4C#N)ccc31)N[C@@H](C1CC1)CCO2 [Example 2b, (R)-6-chloro-5-cyano-4-((2-cyclopropyl-7-methyl-6-oxo-1,2,3,4,6,7-hexahydro-[1,4]oxazepino[2,3-c]quinolin-10-yl)amino)picolinic acid] | – | – | – | 8.91 nM |
| C[C@H]1COC(=O)c2c(c3cc(Nc4nc(N5CC6CCC(C6)C5)ncc4Cl)ccc3n(C)c2=O)N1 [Example 8h, (2S)-10-((2-(3-azabicyclo[3.2.1]octan-3-yl)-5-chloropyrimidin-4-yl)amino)-2,7-dimethyl-2,3-dihydro-[1,4]oxazepino[6,5-c]quinoline-5,6(1H,7H)-dione] | – | 6.47 | – | – |
| C[C@@H]1C[C@H](C)CN(c2ncc(Cl)c(Nc3ccc4c(c3)c3c(c(=O)n4C)C(=O)OC[C@H](C4CC4)N3)n2)C1 [Example 8l, (S)-10-((5-chloro-2-((3R,5S)-3,5-dimethylpiperidin-1-yl)pyrimidin-4-yl)amino)-2-cyclopropyl-7-methyl-2,3-dihydro-[1,4]oxazepino[6,5-c]quinoline-5,6(1H,7H)-dione] | – | 6.36 | – | – |
| CC1CCc2c(c3cc(Nc4ccnc(Cl)c4C#N)ccc3n(C)c2=O)N1 (stereo not drawn) [Example 10a, 2-chloro-4-((2,6-dimethyl-5-oxo-1,2,3,4,5,6-hexahydrobenzo[h][1,6]-naphthyridin-9-yl)amino)nicotinonitrile] | – | 5.84 | – | – |
| C[C@H]1CN(c2ncc(Cl)c(Nc3ccc4c(c3)c3c(c(=O)n4C)OCC[C@H](C4CC4)N3)n2)CCC1(F)F (single isomer, unassigned) [Example 14a, (R)-10-((5-chloro-2-((S)-4,4-difluoro-3-methylpiperidin-1-yl)pyrimidin-4-yl)amino)-2-cyclopropyl-7-methyl-1,2,3,4-tetrahydro-[1,4]oxazepino[2,3-c]quinolin-6(7H)-one or (R)-10-((5-chloro-2-((R)-4,4-difluoro-3-methylpiperidin-1-yl)pyrimidin-4-yl)amino)-2-cyclopropyl-7-methyl-1,2,3,4-tetrahydro-[1,4]oxazepino[2,3-c]quinolin-6(7M)-one] | – | 6.74 | – | – |
